Assays:
[1] = system: PC-14; assay: Apoptosis by Annexin V-FITC/PI flow cytometry, PC-14; format: cell-based; settings: PC-14 (non-WT1-expressing)
Experimental: (§1) To elucidate the mechanism of cancer cell growth suppression by vector-based WT1 siRNAs, induction of apoptosis in cells subjected to a vector-based WT1 siRNA treatment was analyzed. Two WT1-expressing cell lines HT-1080 and AZ-521, and a non-WT1-expressing cell line PC-14 were subjected to the WRI-4m treatment, double-stained with AnnexinV-FITC and PI, and then analyzed by flow cytometry.
(§2) Apoptosis analysis by flow cytometry was carried out by the following steps. First, to detect apoptosed cells, 1.0×10^5 cells were washed with PBS, and then the cells were stained by reaction with Annexin V-FITC and PI at room temperature for 15 minutes, using the MEBCYTO Apoptosis kit (Medical and Biological Laboratories Co., Ltd, Nagoya, Japan). Upon analysis of these cells using a FACScan flowcytometer (Becton Dickinson, San Jose, Calif.), Annexin V-FITC-positive cells were defined as apoptosed cells.

[2] = system: AZ-521 cells; assay: Apoptosis by Annexin V-FITC/PI flow cytometry, AZ-521; format: cell-based
Experimental: as §1, §2

[3] = system: HT-1080 fibrosarcoma cells (WT1-expressing); assay: Cell count 72 hours after introducing vector-based WT1 siRNAs, HT-1080; settings: HT-1080, cell count 72 hours after introduction, versus mock vector
Experimental: (§3) Treatments with the siRNA vectors and mock vector were carried out in the following steps. Cells were plated onto a 6-well plate, and on the next day, the WT1-siRNA expression vectors and mock vector were transiently expressed by lipofection using FuGENE 6 (Roche). Three days later, the cells were trypsinized and the number of cells was counted. The WT1 protein expression level in these cells was analyzed by Western blotting.
To analyze the effect of vector-based WT1 siRNAs on cell growth, the number of cells was counted 72 hours after introducing the six types of vector-based WT1 siRNAs, loop1-WRI-4, WRI-4, WRI-4m, WRI-16m, WRI-17m, and WRI-18m, and a mixture of WRI-4m, WRI-16m, WRI-17m, and WRI-18m, respectively. […] Among the WT1 siRNAs, WRI-4m suppressed growth by 90% or more. In contrast, in PC-14 lung cancer cells (a non-WT1-expressing cell line), cell growth was not suppressed by any of the six vector-based WT1 siRNA treatments (FIG. 6).

[4] = system: HT-1080 cells; assay: Apoptosis by Annexin V-FITC/PI flow cytometry, HT-1080; format: cell-based
Experimental: as §1, §2

[5] = system: SW620 colon cancer cells; assay: Cell count 72 hours after vector introduction, SW620; format: cell-based; settings: SW620, cell count 72 hours later
Experimental: as §3
(§4) Furthermore, to investigate whether two types of vector-based WT1 siRNAs (WRI-4m and WRI-16m) can suppress the growth of various WT1-expressing cancer cells, these vectors were introduced into three WT1-expressing cell lines: AZ-521 gastric cancer cells, SW620 colon cancer cells, and HL-60 leukemia cells, and the number of cells were counted 72 hours later.

[6] = system: cancer cells; assay: Release of cytochrome c from mitochondria into cytoplasm after combined treatment (Western blot); format: cell-based
Experimental: Western blot analysis was carried out by the following steps. Cells transiently expressing the siRNA expression vectors and mock vector were dissolved in an SDS sample buffer, and proteins were separated by SDS-PAGE and then blotted onto a PVDF membrane. Color was developed using a BCIP-NBT kit with the anti-WT1 antibody C-19 (Santa Cruz Biotechnology), an anti-cytochrome C antibody (Pharmingen), or an anti-GAPDH antibody (Chemicon) as a primary antibody, and an ALP-conjugated anti-rabbit or anti-mouse antibody (Santa Cruz Biotechnology) as a second antibody.
Combined use of an siRNA vector with a chemotherapeutic agent or a death ligand, was carried out by the following steps. […]
To reveal that enhancement of cell growth suppression due to combined use of vector-based WT1-siRNA with an anticancer agent is caused by enhancing the induction of mitochondria-mediated apoptosis, the release of cytochrome c from mitochondria into cytoplasm which takes place after combined treatment of vector-based WT1-siRNA with doxorubicin or etoposide was analyzed.
The release of cytochrome c from mitochondria into cytoplasm was analyzed by the following steps. […]

[7] = system: HL-60 leukemia cells; assay: Cell count 72 hours after vector introduction, HL-60; format: cell-based; settings: HL-60, cell count 72 hours later
Experimental: as §3, §4

[8] = system: AZ-521 gastric cancer cells; assay: Cell count 72 hours after vector introduction, AZ-521; format: cell-based; settings: AZ-521, cell count 72 hours later
Experimental: as §3, §4

[9] = system: HT-1080 cells; assay: Mitochondrial membrane potential by MitoLight staining and flow cytometry, HT-1080; format: cell-based; settings: HT-1080, 72 hours, compared to mock vector treatment
Experimental: (§5) To elucidate whether the vector-based WT1 siRNA-induced apoptosis takes place through a mitochondria-mediated pathway, the WT1-expressing cell line HT-1080 cells and the non-WT1-expressing cell line PC14 cells were both treated with WRI-4m and a mock vector respectively. 72 hours later, the state of mitochondrial membrane potential was analyzed by MitoLight staining followed by flow cytometry.
(§6) The change in mitochondrial membrane potential (ΔΨm) due to apoptosis induction was analyzed using the MitoLight apoptosis detection kit (Chemicon). Cells after apoptosis induction were incubated at 37° C. in a buffer containing MitoLight (a mitochondria staining dye) for 15 minutes, and then analyzed on a FACScan FL2 channel.

[10] = system: PC-14; assay: Mitochondrial membrane potential by MitoLight staining and flow cytometry, PC-14; format: cell-based; settings: PC-14 (non-WT1-expressing), 72 hours
Experimental: as §5, §6

[11] = system: cancer cells; assay: Mitochondrial membrane potential after combined treatment (flow cytometry); format: cell-based; settings: compared to anticancer agent alone
Experimental: as §6
Combined use of an siRNA vector with a chemotherapeutic agent or a death ligand, was carried out by the following steps. Cells were plated onto a 6-well plate, and on the next day, the vector-based WT1 siRNA and mock vector were transiently expressed by lipofection using FuGENE 6 (Roche), and 48 hours later, the cells were treated for another 24 hours with 25 μM etoposide (WAKO), 0.2 μM doxorubicin (Sigma), or […] of TNF-related apoptosis-inducing ligand (TRAIL) (Peprotech).
Mitochondrial membrane potential after combined treatment using vector-based WT1 siRNA with doxorubicin, etoposide, and TRAIL, respectively, was evaluated by flow cytometry.

## WRI-4m: siRNA vector, loop 2, target positions 1150-1179 (SEQ ID NO: 9), mutated sense strand SEQ ID NO: 11 (sense AGCTCCAGCTTAGTGAAGTGGGTAGGAGGG)
[1]
  apoptosis induction: did not induce apoptosis
[2]
  apoptosis induced (Annexin V-FITC-positive cells): 40.6%
[3]
  growth suppression: ≥ 90%
[4]
  apoptosis induced (Annexin V-FITC-positive cells): 71.1%
[5]
  growth compared to mock vector treatment: significantly suppressed
[6]; combined treatment with doxorubicin (0.2 μM, 24 hours)
  release of cytochrome c into cytoplasm: enhanced
[6]; combined treatment with etoposide (25 μM, 24 hours)
  release of cytochrome c into cytoplasm: enhanced
[7]
  growth compared to mock vector treatment: significantly suppressed
[8]
  growth compared to mock vector treatment: significantly suppressed
[9]
  loss of the mitochondrial membrane potential: significantly induced
[10]
  loss of the mitochondrial membrane potential: did not induce
[11]; combined treatment with doxorubicin
  loss of mitochondrial membrane potential: significantly enhanced
[11]; combined treatment with etoposide
  loss of mitochondrial membrane potential: significantly enhanced

— US8603997B2, “siRNA that inhibits WT1 gene expression and uses thereof” (Haruo Sugiyama, priority 2004, dated 2013)
